Where two headings read alike, the source gives them in different places.
Molecular target: Escherichia coli DNA gyrase A/B tetramer (Escherichia coli, UniProt P0AES4+P0AES6)
Assay: DNA gyrase supercoiling activity fluorescence polarisation assay
Type: biochemical
In short: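 Gyrase supercoiling reactions quenched with 40 nM 5′-BODIPY-FL oligodeoxynucleotide triplex probe in pH 3.5 NaCl/sodium acetate buffer; fluorescence anisotropy read after 60 min (485/535 nm).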

[1] = E. coli DNA gyrase supercoiling, asterisk: no IC50 obtained at or below the indicated concentration, read-out: IC50

Chain of Escherichia coli DNA gyrase A/B tetramer (P0AES4 whole entry, one chain of several): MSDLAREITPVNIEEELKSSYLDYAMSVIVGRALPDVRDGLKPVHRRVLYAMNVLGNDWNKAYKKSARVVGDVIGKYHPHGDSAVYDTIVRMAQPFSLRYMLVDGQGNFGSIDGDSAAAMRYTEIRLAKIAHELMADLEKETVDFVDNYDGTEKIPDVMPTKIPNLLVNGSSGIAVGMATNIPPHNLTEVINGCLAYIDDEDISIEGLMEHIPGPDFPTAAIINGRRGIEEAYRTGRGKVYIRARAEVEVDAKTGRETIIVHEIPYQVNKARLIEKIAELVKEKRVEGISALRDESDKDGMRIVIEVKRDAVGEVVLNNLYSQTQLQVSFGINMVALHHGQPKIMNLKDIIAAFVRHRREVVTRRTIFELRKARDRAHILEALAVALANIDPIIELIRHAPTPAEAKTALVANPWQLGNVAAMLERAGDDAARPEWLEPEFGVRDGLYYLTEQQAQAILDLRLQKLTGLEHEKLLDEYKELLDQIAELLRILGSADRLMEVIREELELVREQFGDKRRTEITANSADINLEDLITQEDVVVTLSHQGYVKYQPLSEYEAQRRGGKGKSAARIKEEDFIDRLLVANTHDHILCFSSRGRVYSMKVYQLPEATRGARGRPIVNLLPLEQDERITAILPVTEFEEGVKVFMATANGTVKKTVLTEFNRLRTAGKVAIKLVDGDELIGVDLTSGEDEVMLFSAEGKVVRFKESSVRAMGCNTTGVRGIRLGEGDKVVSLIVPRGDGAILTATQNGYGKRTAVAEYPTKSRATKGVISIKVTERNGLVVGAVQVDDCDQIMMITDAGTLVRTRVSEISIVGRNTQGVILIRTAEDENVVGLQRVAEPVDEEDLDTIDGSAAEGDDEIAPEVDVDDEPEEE

**Q.** How did the IC50 turn out when COc1nccnc1-c1cnc2c(c1)CC1(C(=O)NC(=O)NC1=O)[C@H]1[C@H](C)O[C@H](C)CN21 (relative stereo) [Example 92, (6aS,7S,9R)-rel-3-(3-Methoxypyrazin-2-yl)-7,9-dimethyl-6a,7,9,10-tetrahydro-2′H,5H-spiro[1,4-oxazino[4,3-a][1,8]naphthyridine-6,5′-pyrimidine]-2′,4′,6′(1′H,3′H)-trione] was run?
**A.** 20 µM

**Q.** How did the IC50 [1] turn out when COc1nccnc1-c1cc2c(cn1)N1C[C@@H](C)O[C@@H](C)[C@@H]1C1(C2)C(=O)NC(=O)NC1=O (relative stereo) [Example 93, (6aS,7S,9R)-rel-3-(3-Methoxypyrazin-2-yl)-7,9-dimethyl-6a,7,9,10-tetrahydro-2′H,5H-spiro[1,4-oxazino[4,3-a][1,7]naphthyridine-6,5′-pyrimidine]-2′,4′,6′(1′H, 3H)-trione] was run?
**A.** > 83 µM

**Q.** How did the IC50 [1] turn out when C[C@@H]1CN2c3ncc(-c4ccnnc4)cc3CC3(C(=O)NC(=O)NC3=O)[C@H]2[C@H](C)O1 (relative stereo) [Example 94, (6aS,7S,9R)-rel-7,9-Dimethyl-3-(pyridazin-4-yl)-6a,7,9,10-tetrahydro-2′H,5H-spiro[1,4-oxazino[4,3-a][1,8]naphthyridine-6,5′-pyrimidine]-2′,4′,6′(1′H, 3H)-trione] was run?
**A.** 7 µM

**Q.** C[C@@H]1CN2c3ccc(-c4ccnnc4)nc3CC3(C(=O)NC(=O)NC3=O)[C@H]2[C@H](C)O1 (relative stereo) [Example 95, (2R,4S,4aS)-rel-2,4-Dimethyl-8-(pyridazin-4-yl)-1,2,4,4a-tetrahydro-2′H,6H-spiro[1,4-oxazino[4,3-a][1,5]naphthyridine-5,5′-pyrimidine]-2′,4′,6′(1′H,3′H)-trione] was tested. Which IC50 did it give?
**A.** 2 µM

**Q.** With C[C@@H]1CN2c3cnc(-c4ccnnc4)cc3CC3(C(=O)NC(=O)NC3=O)[C@H]2[C@H](C)O1 (relative stereo) [Example 96, (6aS,7S,9R)-rel-7,9-Dimethyl-3-(pyridazin-4-yl)-6a,7,9,10-tetrahydro-2′H,5H-spiro[1,4-oxazino[4,3-a][1,7]naphthyridine-6,5′-pyrimidine]-2′,4′,6′(1′H,3′H)-trione] as the molecule, how does the IC50 read?
**A.** 3 µM

**Q.** With C[C@@H]1CN2c3ncc(-c4ncco4)cc3CC3(C(=O)NC(=O)NC3=O)[C@H]2[C@H](C)O1 (relative stereo) [Example 97, (6aS,7S,9R)-rel-7,9-Dimethyl-3-(1,3-oxazol-2-yl)-6a,7,9,10-tetrahydro-2′H,5H-spiro[1,4-oxazino[4,3-a][1,8]naphthyridine-6,5′-pyrimidine]-2′,4′,6′(1′H,3′H)-trione] as the molecule, how does the IC50 read?
**A.** 44 µM

**Q.** C[C@@H]1CN2c3ccc(-c4ncco4)nc3CC3(C(=O)NC(=O)NC3=O)[C@H]2[C@H](C)O1 (relative stereo) [Example 98, (2R,4S,4aS)-rel-2,4-Dimethyl-8-(1,3-oxazol-2-yl)-1,2,4,4a-tetrahydro-2′H,6H-spiro[1,4-oxazino[4,3-a][1,5]naphthyridine-5,5′-pyrimidine]-2′,4′,6′(1′H,3′H)-trione] was tested. Which IC50 did it give?
**A.** 51 µM

**Q.** How did the IC50 turn out when C[C@@H]1CN2c3cnc(-c4ncco4)cc3CC3(C(=O)NC(=O)NC3=O)[C@H]2[C@H](C)O1 (relative stereo) [Example 99, (6aS,7S,9R)-rel-7,9-Dimethyl-3-(1,3-oxazol-2-yl)-6a,7,9,10-tetrahydro-2′H,5H-spiro[1,4-oxazino[4,3-a][1,7]naphthyridine-6,5′-pyrimidine]-2′,4′,6′(1′H,3′H)-trione] was run?
**A.** 44 µM

**Q.** With C[C@@H]1CN2c3ncc(-c4cscn4)cc3CC3(C(=O)NC(=O)NC3=O)[C@H]2[C@H](C)O1 (relative stereo) [Example 100, (6aS,7S,9R)-rel-7,9-Dimethyl-3-(1,3-thiazol-4-yl)-6a,7,9,10-tetrahydro-2′H,5H-spiro[1,4-oxazino[4,3-a][1,8]naphthyridine-6,5′-pyrimidine]-2′,4′,6′(1′H,3′H)-trione] as the molecule, how does the IC50 read?
**A.** 7 µM

**Q.** How did the IC50 turn out when C[C@@H]1CN2c3ccc(-c4cscn4)nc3CC3(C(=O)NC(=O)NC3=O)[C@H]2[C@H](C)O1 (relative stereo) [Example 101, (2R,4S,4aS)-rel-2,4-Dimethyl-8-(1,3-thiazol-4-yl)-1,2,4,4a-tetrahydro-2′H,6H-spiro[1,4-oxazino[4,3-a][1,5]naphthyridine-5,5′-pyrimidine]-2′,4′,6′(1′H,3′H)-trione] was run?
**A.** 2 µM

**Q.** With C[C@@H]1CN2c3cnc(-c4cscn4)cc3CC3(C(=O)NC(=O)NC3=O)[C@H]2[C@H](C)O1 (relative stereo) [Example 102, (6aS,7S,9R)-rel-7,9-Dimethyl-3-(1,3-thiazol-4-yl)-6a,7,9,10-tetrahydro-2′H,5H-spiro[1,4-oxazino[4,3-a][1,7]naphthyridine-6,5′-pyrimidine]-2′,4′,6′(1′H,3′H)-trione] as the molecule, how does the IC50 read?
**A.** 16 µM

**Q.** For COc1cncc(-c2cnc3c(c2)CC2(C(=O)NC(=O)NC2=O)[C@H]2[C@H](C)O[C@H](C)CN32)n1 (relative stereo) [Example 103, (6aS,7S,9R)-rel-3-(6-Methoxypyrazin-2-yl)-7,9-dimethyl-6a,7,9,10-tetrahydro-2′H,5H-spiro[1,4-oxazino[4,3-a][1,8]naphthyridine-6,5′-pyrimidine]-2′,4′,6′(1′H,3′H)-trione], which IC50 is on record?
**A.** 4 µM

**Q.** COc1cncc(-c2ccc3c(n2)CC2(C(=O)NC(=O)NC2=O)[C@H]2[C@H](C)O[C@H](C)CN32)n1 (relative stereo) [Example 104, (2R,4S,4aS)-rel-8-(6-Methoxypyrazin-2-yl)-2,4-dimethyl-1,2,4,4a-tetrahydro-2′H,6H-spiro[1,4-oxazino[4,3-a][1,5]naphthyridine-5,5′-pyrimidine]-2′,4′,6′(1′H,3′H)-trione] was tested. Which IC50 did it give?
**A.** 22 µM

**Q.** How did the IC50 turn out when COc1nc(-c2cnc3c(c2)CC2(C(=O)NC(=O)NC2=O)[C@H]2[C@H](C)O[C@H](C)CN32)cs1 (relative stereo) [Example 107, (6aS,7S,9R)-rel-3-(2-Methoxy-1,3-thiazol-4-yl)-7,9-dimethyl-6a,7,9,10-tetrahydro-2′H,5H-spiro[1,4-oxazino[4,3-a][1,8]naphthyridine-6,5′-pyrimidine]-2′,4′,6′(1′H,3′H)-trione] was run?
**A.** 6 µM

**Q.** Cc1nc(C)c(-c2ccc3c(n2)CC2(C(=O)NC(=O)NC2=O)[C@H]2[C@H](C)O[C@H](C)CN32)s1 (relative stereo) [Example 109, (2R,4S,4aS)-rel-8-(2,4-Dimethyl-1,3-thiazol-5-yl)-2,4-dimethyl-1,2,4,4a-tetrahydro-2′H,6H-spiro[1,4-oxazino[4,3-a][1,5]naphthyridine-5,5′-pyrimidine]-2′,4′,6′(1′H,3′H)-trione] was tested. Which IC50 did it give?
**A.** 14 µM

**Q.** C[C@@H]1CN2c3ncc(-c4ccc(N5CCOCC5)nc4)cc3CC3(C(=O)NC(=O)NC3=O)[C@H]2[C@H](C)O1 (relative stereo) [Example 111, (6aS,7S,9R)-rel-7,9-Dimethyl-3-[6-(morpholin-4-yl)pyridin-3-yl]-6a,7,9,10-tetrahydro-2′H,5H-spiro[1,4-oxazino[4,3-a][1,8]naphthyridine-6,5′-pyrimidine]-2′,4′,6′(1′H,3′H)-trione] was tested. Which IC50 did it give?
**A.** 23 µM

**Q.** Which IC50 does the source give for C[C@@H]1CN2c3cnc(-c4ccc(N5CCOCC5)nc4)cc3CC3(C(=O)NC(=O)NC3=O)[C@H]2[C@H](C)O1 (relative stereo) [Example 112, (6aS,7S,9R)-rel-7,9-Dimethyl-3-[6-(morpholin-4-yl)pyridin-3-yl]-6a,7,9,10-tetrahydro-2′H,5H-spiro[1,4-oxazino[4,3-a][1,7]naphthyridine-6,5′-pyrimidine]-2′,4′,6′(1′H,3′H)-trione] here?
**A.** > 83 µM

**Q.** How did the IC50 turn out when C[C@@H]1CN2c3ncc(C#N)cc3CC3(C(=O)NC(=O)NC3=O)[C@H]2[C@H](C)O1 (relative stereo) [Example 113, (6aS,7S,9R)-rel-7,9-Dimethyl-2′,4′,6′-trioxo-1′,3′,4′,6′,6a,7,9,10-octahydro-2′H,5H-spiro[1,4-oxazino[4,3-a][1,8]naphthyridine-6,5′-pyrimidine]-3-carbonitrile] was run?
**A.** 22 µM

**Q.** Which IC50 does the source give for C[C@@H]1CN2c3c(nc(Br)c(F)c3Cl)CC3(C(=O)NC(=O)NC3=O)[C@H]2[C@H](C)O1 (relative stereo) [Example 114, (2R,4S,4aS)-rel-8-Bromo-10-chloro-9-fluoro-2,4-dimethyl-2,4,4a,6-tetrahydro-1H,1′H-spiro[[1,4]oxazino[4,3-a][1,5]naphthyridine-5,5′-pyrimidine]-2′,4′,6′(3′H)-trione] here?
**A.** 2 µM

**Q.** C[C@@H]1CN2c3cc(Cl)ncc3CC3(C(=O)NC(=O)NC3=O)[C@H]2[C@H](C)O1 (relative stereo) [Example 115, (2R,4S,4aS)-rel-9-chloro-2,4-dimethyl-1,2,4,4a-tetrahydro-2′H,6H-spiro[1,4-oxazino[4,3-a][1,6]naphthyridine-5,5′-pyrimidine]-2′,4′,6′(1′H,3′H)-trione] was tested. Which IC50 did it give?
**A.** > 20 µM

**Q.** For C[C@@H]1CN2c3cnc(-c4cccs4)cc3CC3(C(=O)NC(=O)NC3=O)[C@H]2[C@H](C)O1 (relative stereo) [Example 116, (6aS,7S,9R)-rel-7,9-dimethyl-3-(thiophen-2-yl)-6a,7,9,10-tetrahydro-1′H,5H-spiro[[1,4]oxazino[4,3-a][1,7]naphthyridine-6,5′-pyrimidine]-2′,4′,6′(3′H)-trione], which IC50 is on record?
**A.** 33 µM

**Q.** C[C@@H]1CN2c3cnc(-c4ccn[nH]4)cc3CC3(C(=O)NC(=O)NC3=O)[C@H]2[C@H](C)O1 (relative stereo) [Example 118, (6aS,7S,9R)-rel-7,9-Dimethyl-3-(1H-pyrazol-5-yl)-6a,7,9,10-tetrahydro-2′H,5H-spiro[1,4-oxazino[4,3-a][1,7]naphthyridine-6,5′-pyrimidine]-2′,4′,6′(1′H,3′H)-trione] was tested. Which IC50 did it give?
**A.** 19 µM

**Q.** With C[C@H]1CN2c3ncc(-c4nnn(C)n4)cc3CC3(C(=O)NC(=O)NC3=O)[C@@H]2[C@@H](C)O1 (relative stereo) [Example 120(a), (6aR,7R,9S)-rel-7,9-Dimethyl-3-(2-methyl-2H-tetrazol-5-yl)-6a,7,9,10-tetrahydro-2′H,5H-spiro[1,4-oxazino[4,3-a][1,8]naphthyridine-6,5′-pyrimidine]-2′,4′,6′(1′H,3′H)-trione] as the molecule, how does the IC50 read?
**A.** 12 µM
